The text below walks through data of patent US8124617B2, “Imidazopyridine compounds” (Takeda San Diego, Inc., priority 2005, dated 2012).

The target of this experiment is T1, glucokinase (residues 12-465 of the human enzyme) (Homo sapiens, UniProt P35557).
T1 construct: FLAG (vector pFLAG-CTC) (C); made in house; host or cells: E. coli DH10b-T1r (pFLAG-CTC)
T1 sequence (P35557 12-465): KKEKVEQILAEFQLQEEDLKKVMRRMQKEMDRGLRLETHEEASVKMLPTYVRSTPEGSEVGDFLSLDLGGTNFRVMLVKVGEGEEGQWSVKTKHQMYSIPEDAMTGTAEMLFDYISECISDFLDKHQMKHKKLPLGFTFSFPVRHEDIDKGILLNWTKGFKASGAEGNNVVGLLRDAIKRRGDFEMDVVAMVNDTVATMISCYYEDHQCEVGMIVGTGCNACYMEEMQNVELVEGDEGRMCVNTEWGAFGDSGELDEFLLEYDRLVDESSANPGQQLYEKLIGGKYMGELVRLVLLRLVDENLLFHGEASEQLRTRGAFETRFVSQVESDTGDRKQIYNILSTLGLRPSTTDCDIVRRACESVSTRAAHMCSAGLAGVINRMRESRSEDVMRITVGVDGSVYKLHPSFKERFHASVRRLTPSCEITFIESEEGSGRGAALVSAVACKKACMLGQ
The experiment can be described thus: Measurement of GK activation value (ATP/glucose, luciferase luminescence). The experiment is classed as biochemical. The note with it: values given as ranges; for EC50: Kact = concentration that displays 50% of the maximal increase in GK activity, room temperature, 60 min, read-out: pKact; for Emax: calculated maximal gain in GK enzyme activity at a saturating concentration of the compound, read-out: % ACTmaxc. The text has this: Purified glucokinase may be obtained as follows. DNA encoding residues 12-465 of the full-length sequence of the human enzyme may be amplified by PCR and cloned into the HindIII and EcoRI sites of pFLAG-CTC (Sigma). SEQ ID No. 5 corresponds to residues 12-465 of glucokinase.
The expression of recombinant glucokinase protein may be carried out by transformation and growth of DH10b-T1r E. coli cells incorporating the (pFLAG-CTC) plasmid in LB media. Protein expression can be induced in this system by the addition of IPTG to the culture medium.
Recombinant protein may be isolated from cellular extracts by passage over Sepharose Q Fast Flow resin (Pharmacia). This partially purified GK extract may then be further purified by a second passage over Poros HQ10 (Applied Biosystems). The purity of GK may be determined on denaturing SDS-PAGE gel. Purified GK may then be concentrated to a final concentration of 20.0 mg/ml. After flash freezing in liquid nitrogen, the proteins can be stored at −78° C. in a buffer containing 25 mM TRIS-HCl pH 7.6, 50 mM NaCl, and 0.5 mM TCEP.
The assay reaction may be initiated as follows: 4 μl of substrate mixture (12.5 μM ATP and 12.5 mM Glucose) was added to each well of the plate, followed by the addition of 2 μl of activator (2 fold serial dilutions for 11 data points for each activator) containing 10% DMSO. 4 μL of 1.25 nM GK solution may be added to initiate the reaction. The reaction mixture may then be incubated at room temperature for 60 min, and quenched and developed by addition of 10 μL of luciferase reagent. Luminescence intensities of the resulting reaction mixtures may be measured after a 10 min incubation at room temperature. The luminescence intensity may be measured by using the Analyst HT from LJL Biosystems.
pKact and % ACTmax values may be calculated by non-linear curve fitting of the compound concentrations and luminescence intensities to a standard inhibition/activation equation.

Molecules are shown by their SMILES.

On to `CC(C)Oc1ccc(OCc2ccccc2)cc1-c1nc2cc(-c3cccc(F)c3)cnc2[nH]1` [Example 71, 2-[5-(benzyloxy)-2-isopropoxyphenyl]-6-(3-fluorophenyl)-3H-imidazo[4,5-b]pyridine], for which the EC50 lay in the range of 0.398 to 1 µM and the Emax is 20 to 29.9%.
In the case of `CC(C)Oc1cc(OCc2ccccc2)cc(-c2nc3cccnc3[nH]2)c1` [Example 158, 2-(3-(benzyloxy)-5-isopropoxyphenyl)-3H-imidazo[4,5-b]pyridine], the EC50 lay within 0.126 to 0.316 µM and the Emax is 20 to 29.9%.
With `CC(C)Oc1cc(OCCCc2ccccc2)cc(-c2nc3cccnc3[nH]2)c1` [Example 159, 2-(3-isopropoxy-5-(3-phenylpropoxy)phenyl)-3H-imidazo[4,5-b]pyridine], the EC50 was 0.398 to 1 µM and the Emax is 20 to 29.9%.
For the compound `CC(C)Oc1cc(OCCc2ccccc2)cc(-c2nc3cccnc3[nH]2)c1` [Example 161, 2-(3-isopropoxy-5-phenethoxyphenyl)-3H-imidazo[4,5-b]pyridine], the EC50 is under 0.1 µM and the Emax is 30 to 49.9%.
`Cn1ccnc1COc1cc(OCc2ccccc2)cc(-c2nc3cccnc3[nH]2)c1` [Example 162, 2-(3-(benzyloxy)-5-((1-methyl-1H-imidazol-2-yl)methoxy)phenyl)-3H-imidazo[4,5-b]pyridine]: the EC50 was 0.126 to 0.316 µM and the Emax is over 70%.
The matching figures for `Cn1ccnc1COc1cc(OCc2ccccc2)cc(-c2nc3cc(Br)cnc3[nH]2)c1` [Example 163, 2-(3-(benzyloxy)-5-((1-methyl-1H-imidazol-2-yl)methoxy)phenyl)-6-bromo-3H-imidazo[4,5-b]pyridine]: under 0.1 µM and 50 to 69.9%.
Consider `Cn1ccnc1COc1cc(OCCc2ccsc2)cc(-c2nc3cc(Br)cnc3[nH]2)c1` [Example 164, 6-bromo-2-(3-((1-methyl-1H-imidazol-2-yl)methoxy)-5-(2-(thiophen-3-yl)ethoxy)phenyl)-3H-imidazo[4,5-b]pyridine], for which the EC50 lay within 0.126 to 0.316 µM and the Emax is 50 to 69.9%.
On to `Cn1ccnc1COc1cc(OCc2ccccc2F)cc(-c2nc3cccnc3[nH]2)c1` [Example 165, 2-(3-(2-fluorobenzyloxy)-5-((1-methyl-1H-imidazol-2yl)methoxy)phenyl)-3H-imidazo[4,5-b]pyridine], for which the EC50 is under 0.1 µM and the Emax was over 70%.
As to `Cn1ccnc1COc1cc(OCc2ccccc2F)cc(-c2nc3cc(Cl)cnc3[nH]2)c1` [Example 166, 6-chloro-2-(3-(2-fluorobenzyloxy)-5-((1-methyl-1H-imidazol-2-yl)methoxy)phenyl)-3H-imidazo[4,5-b]pyridine], the EC50 was under 0.1 µM and the Emax was over 70%.
Regarding `Cn1ccnc1COc1cc(OCc2ccccc2F)cc(-c2nc3cc(Br)cnc3[nH]2)c1` [Example 167, 6-bromo-2-(3-(2-fluorobenzyloxy)-5-((1-methyl-1H-imidazol-2-yl)methoxy)phenyl)-3H-imidazo[4,5-b]pyridine], the EC50 is under 0.1 µM and the Emax is over 70%.
Turning to `Cn1ccnc1COc1cc(OCc2ccccc2F)cc(-c2nc3cc(CCCO)cnc3[nH]2)c1` [Example 168, 3-(2-(3-(2-fluorobenzyloxy)-5-((1-methyl-1H-imidazol-2-yl)methoxy)phenyl)-3H-imidazo[4,5-]pyridin-6-yl)propan-1-ol], the EC50 was in the range of 0.126 to 0.316 µM and the Emax was over 70%.
The like results for `COC[C@@H](C)Oc1cc(OCc2ccccc2F)cc(-c2nc3cccnc3[nH]2)c1` [Example 172, (R)-2-(3-(2-fluorobenzyloxy)-5-(1-methoxypropan-2-yloxy)phenyl)-3H-imidazo[4,5-b]pyridine] were, in that order, 0.398 to 1 µM and 50 to 69.9%.
For `COC[C@@H](C)Oc1cc(OCc2ccccc2F)cc(-c2nc3cc(Cl)cnc3[nH]2)c1` [Example 173, (R)-6-chloro-2-(3-(2-fluorobenzyloxy)-5-(1-methoxypropan-2-yloxy)phenyl)-3H-imidazo[4,5-b]pyridine], the EC50 fell in the range of 0.126 to 0.316 µM and the Emax is 50 to 69.9%.
Regarding `COC[C@@H](C)Oc1cc(OCc2ccccc2F)cc(-c2nc3cc(Br)cnc3[nH]2)c1` [Example 174, (R)-6-bromo-2-(3-(2-fluorobenzyloxy)-5-(1-methoxypropan-2-yloxy)phenyl)-3H-imidazo[4,5-b]pyridine], the EC50 fell in the range of 0.126 to 0.316 µM and the Emax is 30 to 49.9%.
Consider `COC[C@H](C)Oc1cc(OCc2ccccc2F)cc(-c2nc3cc(CCCO)cnc3[nH]2)c1` [Example 177, (S)-3-(2-(3-(2-fluorobenzyloxy)-5-(1-methoxypropan-2-yloxy)phenyl)-3H-imidazo[4,5-b]pyridin-6-yl)propan-1-ol], for which the EC50 lay within 0.398 to 1 µM and the Emax is 20 to 29.9%.
As to `COC[C@H](C)Oc1cc(Oc2ccc(S(C)(=O)=O)cc2)cc(-c2nc3cccnc3[nH]2)c1` [Example 181, (S)-2-(3-(1-methoxypropan-2-yloxy)-5-(4-(methylsulfonyl)phenoxy)phenyl)-3H-imidazo[4,5-b]pyridine], the EC50 was in the range of 0.398 to 1 µM and the Emax was over 70%.
In the case of `Brc1cnc2[nH]c(-c3ccccc3Oc3ccccc3)nc2c1` [Example 188, 6-bromo-2-(2-phenoxyphenyl)-3H-imidazo[4,5-b]pyridine], the EC50 lay within 0.398 to 1 µM and the Emax is 30 to 49.9%.
As to `CC(C)Oc1ccc(/C=C/c2ccccc2)cc1-c1nc2cccnc2[nH]1` [Example 196, (E)-2-(2-isopropoxy-5-styrylphenyl)-3H-imidazo[4,5-b]pyridine], the EC50 was in the range of 0.398 to 1 µM and the Emax was over 70%.
For the compound `Cn1ccnc1CNc1cc(NS(=O)(=O)c2ccccc2)cc(-c2nc3cc(Br)cnc3[nH]2)c1` [Example 213, N-(3-(6-bromo-3H-imidazo[4,5-b]pyridin-2-yl)-5-((1-methyl-1H-imidazol-2-yl)methylamino)phenyl)benzenesulfonamide], the EC50 is 0.126 to 0.316 µM and the Emax is 30 to 49.9%.
As for `Cn1ccnc1CNc1cc(NS(C)(=O)=O)cc(-c2nc3cc(Br)cnc3[nH]2)c1` [Example 214, N-(3-(6-bromo-3H-imidazo[4,5-b]pyridin-2-yl)-5-((1-methyl-1H-imidazol-2-yl)methylamino)phenyl)methanesulfonamide], the EC50 lay in the range of 0.398 to 1 µM and the Emax was 30 to 49.9%.
In the case of `COc1ccc(OCc2ccccc2)cc1-c1nc2cc(Br)cnc2[nH]1` [Example 243, 2-(5-(benzyloxy)-2-methoxyphenyl)-6-bromo-3H-imidazo[4,5-b]pyridine], the EC50 was 0.126 to 0.316 µM and the Emax is 30 to 49.9%.
The matching figures for `Brc1cnc2[nH]c(-c3ccccc3Oc3cccnc3)nc2c1` [Example 244, 6-bromo-2-(2-(pyridin-3-yloxy)phenyl)-3H-imidazo[4,5-b]pyridine]: 0.398 to 1 µM and 20 to 29.9%.
In the case of `Fc1ccccc1COc1cc(Oc2ncccn2)cc(-c2nc3cc(Br)cnc3[nH]2)c1` [Example 245, 6-bromo-2-(3-(2-fluorobenzyloxy)-5-(pyrimidin-2-yloxy)phenyl)-3H-imidazo[4,5-b]pyridine], the EC50 lay within 0.398 to 1 µM and the Emax was over 70%.
`COc1ccc(/C=C/c2ccncc2)cc1-c1nc2cccnc2[nH]1` [Example 246, (E)-2-(2-methoxy-5-(2-(pyridin-4-yl)vinyl)phenyl)-3H-imidazo[4,5-b]pyridine]: the EC50 was in the range of 0.398 to 1 µM and the Emax is 30 to 49.9%.
